Data taken from US20260335306A1, “DOSAGE REGIMENS OF ESTROGEN RECEPTOR DEGRADERS” (priority 2022, published 2026).
Read-outs that look alike come from different tables or passages of the source.

Legend:
[1] = FIH Study Part C: pharmacokinetics in patients with breast cancer; assay type: in vivo, human; settings: preliminary
Protocol: Additional evaluation will include single- and multiple-dose pharmacokinetics and biochemical activity.
Palbociclib was administered orally once a day at 125 mg/day for 21 days followed by 7 days off treatment for each 28-day cycle according to product labeling and in compliance with its local prescribing information.
Anticancer Drugs. 2018 March; 29 (3): 271280).

T47D cells = test: Live-cell imaging proliferation assay (Incucyte), T47D; assay type: cell-based; settings: Homo sapiens, 120 h; for GI50: read-out: approximate GI50
Description: (§1) FIGS. 1A-1H are graphs showing quantification of the MCF7 and T47D live-cell imaging proliferation assays. […] Each plot is representative of three independent experiments. […] Each plot is representative of three independent experiments, except for the T47D fulvestrant arms in FIGS. 1A and 1C, which are the result of 2 independent experiments). FIGS. 1B, 1D, 1F and 1H show differences in relative MCF7 and T47D cell growth compared to vehicle control at 120-hours of treatment. Graphs show the mean of three independent experiments, except for the T47D fulvestrant arms in FIGS. 1B and 1D, which are the result of 2 independent experiments). Error bars=standard error of the mean (SEM). *p<0.025, **p≤0.008, ***p≤0.0006, ****p<0.0001, ns=not significant (one-way ANOVA test).
(§2) MCF7 or T47D cells were seeded in 6 well plates and treated with the indicated concentrations of compounds. The plate was then placed in the Incucyte® S3 Live-Cell Analysis System and images were acquired every 4 hours for a total of 5 days. Data were analyzed using the Incucyte® Software v2020C which quantified cell surface area coverage as confluence values. Relative growth was calculated for all timepoints for all growth conditions relative to the confluence value observed for the control at 120 hours (FIGS. 1A and 1C). Graphing and statistical analyses were performed using Graphpad Prism (GraphPad Software).
(§3) For fulvestrant and fulvestrant plus abemaciclib, mean decreases in MCF7 cell growth were 48% and 68%, respectively.

[2] = tested on: MCF7 orthotopic xenograft; test: MCF7 orthotopic xenograft model, abemaciclib study; assay type: in vivo, NOD/SCID mice; settings: 28 days; Compound A 30 mg/kg, abemaciclib 30 mg/kg orally QD, fulvestrant 200 mg/kg SC; FIG. 3A
Protocol: Briefly, MCF7 cells were orthotopically implanted into the mammary fat pads of NOD/SCID female mice. 17β-estradiol 0.72 mg 90-day pellet (Innovative Research of America) were implanted 2-3 days prior to MCF7 cell implant. […] Fulvestrant-treated mice were dosed subcutaneously twice per week for 2 weeks followed by once weekly for 2 weeks.
Eight- to ten-week-old female NOD/SCID mice were surgically implanted with a 0.36 mg 90-day release 17β-estradiol pellet subcutaneously. One to two days later each mouse was injected with 5×10^6/200 μL MCF7 cells into one mammary fat pad. […] Fulvestrant (200 mg/kg, subcutaneously; twice per week for 2 weeks followed by once-weekly for 2 weeks) was also evaluated as a single agent and in combination with abemaciclib and ribociclib. […]
Vehicle for abemaciclib was 1% hydroxymethyl cellulose (HEC) in 20 mM HCl pH2. […] Tumor volumes were measured twice per week in efficacy studies and calculated using (width^2×length)/2, where all measurements are in millimeters (mm) and the tumor volume is in mm^3. Body weights were recorded twice per week. […] Tumor growth inhibition (TGI) was calculated as follows, where tumor volume is in mm^3:

MCF7 cells = test: Live-cell imaging proliferation assay (Incucyte), MCF7; assay type: cell-based; settings: for GI50: Homo sapiens, MCF7, 120 h, read-out: approximate GI50; for mean decrease in MCF7 cell growth relative to control: 5 days, Compound A 10 nM
Description: as §1, §2, §3

[3] = human, in vivo
MCF7 xenograft = MCF7 xenograft model, palbociclib study; assay type: in vivo, NOD/SCID mice; settings: 28 days; Compound A 30 mg/kg PO QD, fulvestrant 200 mg/kg SC, palbociclib 60 mg/kg PO QD; FIG. 5
Protocol: Female severe combined immunodeficient mouse in non-obese background (NOD/scid) mice were implanted with MCF7 cells and compound administration was initiated once the tumors reached 200 mm^3. Tumor volumes were evaluated twice per week for 28 days. […] Data are presented as mean±standard error of the mean (SEM)
(§4) Briefly, MCF7 cells were orthotopically implanted into the mammary fat pads of NOD/SCID female mice. 17β-estradiol 0.72 mg 90-day pellet (Innovative Research of America) were implanted 2-3 days prior to MCF7 cell implant. […] Compound A- and/or combination partner-treated mice were dosed orally once daily. Fulvestrant-treated mice were dosed subcutaneously twice per week for 2 weeks followed by once weekly for 2 weeks.
(§5) Vehicle for abemaciclib was 1% […] (HEC) in 20 mM HCl pH2. Vehicle for ribociclib was 0.5% methylcellulose. Vehicle for fulvestrant was 10% w/v ethanol, 10% w/v benzyl alcohol, 15% w/v benzyl benzoate, made up to 100% w/v with castor oil. […] Tumor volumes were measured twice per week in efficacy studies and calculated using (width^2×length)/2, where all measurements are in millimeters (mm) and the tumor volume is in mm^3. Body weights were recorded twice per week. […] Tumor growth inhibition (TGI) was calculated as follows, where tumor volume is in mm^3: […]

[4] = Clinical Pharmacology Study: safety in healthy volunteers; settings: 200 mg, 47 healthy participants
[5] = Biopharmaceutics Classification System classification; assay type: physicochemical
[6] = Interconversion of Compound A to Compound B; assay type: physicochemical
[7] = tested on: MCF7 orthotopic xenograft; test: MCF7 orthotopic xenograft model, ribociclib study; assay type: in vivo, NOD/SCID mice; settings: 28 days; Compound A 30 mg/kg, ribociclib 75 mg/kg orally QD, fulvestrant 200 mg/kg SC; FIG. 3B
Protocol: Mean tumor volumes are reported ±SEM. Single-day dosing holidays are indicated by small black arrows.
Compounds dosed as single agents or in combination, 10 mice/arm.
as §4
Eight- to ten-week-old female NOD/SCID mice were surgically implanted with a 0.36 mg 90-day release 17β-estradiol pellet subcutaneously. […] Fulvestrant (200 mg/kg, subcutaneously; twice per week for 2 weeks followed by once-weekly for 2 weeks) was also evaluated as a single agent and in combination with abemaciclib and ribociclib. […]
as §5, with “pH2.” for “pH2. Vehicle for ribociclib was 0.5% methylcellulose. Vehicle for fulvestrant was 10% w/v ethanol, 10% w/v benzyl alcohol, 15% w/v benzyl benzoate, made up to 100% w/v with castor oil.”

[8] = Exposure of Compound B relative to Compound A (preclinical data)
ER = biological target: T1, ER (Homo sapiens, UniProt P03372); test: ER degradation
T1 construct: degradation by PROTAC
T1 sequence (P03372 1-595): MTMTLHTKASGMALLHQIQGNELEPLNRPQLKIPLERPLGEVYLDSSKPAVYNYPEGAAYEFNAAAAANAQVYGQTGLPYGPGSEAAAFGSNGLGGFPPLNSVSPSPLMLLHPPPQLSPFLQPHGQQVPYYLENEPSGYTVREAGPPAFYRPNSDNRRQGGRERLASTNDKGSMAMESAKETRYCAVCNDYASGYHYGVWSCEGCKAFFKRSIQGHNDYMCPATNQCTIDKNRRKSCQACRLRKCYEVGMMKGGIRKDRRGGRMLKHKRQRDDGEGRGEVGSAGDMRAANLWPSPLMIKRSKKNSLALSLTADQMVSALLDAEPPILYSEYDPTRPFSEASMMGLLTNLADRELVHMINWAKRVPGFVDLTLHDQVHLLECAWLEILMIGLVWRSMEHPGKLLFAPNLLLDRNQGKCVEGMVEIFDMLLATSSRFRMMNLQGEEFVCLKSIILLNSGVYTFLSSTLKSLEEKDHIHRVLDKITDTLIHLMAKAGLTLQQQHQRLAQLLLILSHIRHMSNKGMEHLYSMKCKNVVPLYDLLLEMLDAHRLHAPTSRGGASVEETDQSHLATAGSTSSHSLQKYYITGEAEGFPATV

[9] = read-out: mean decrease in T47D cell growth relative to control
[10] = abemaciclib experiment, fulvestrant 1 nM, abemaciclib 40 nM (approx. GI50)
[11] = read-out: mean change in T47D cell growth relative to control
[12] = with palbociclib, 180 up to 500 mg QD Compound A, Cycle 1 Day 1 and Day 15

For `CC(=O)c1c(C)c2cnc(Nc3ccc(N4CCNCC4)cn3)nc2n(C2CCCC2)c1=O` [palbociclib, 6-acetyl-8-cyclopentyl-5-methyl-2-(5-piperazin-1-yl-pyridin-2-ylamino)-8H-pyrido[2,3-d]pyrimidin-7-one], the “increase in palbociclib AUCtau vs PALOMA-1 and PALOMA-2” value ([1]; Cycle 1 Day 15, 125 mg QD palbociclib with 500 mg QD Compound A) was roughly 34%.

For `CCN1CCN(Cc2ccc(Nc3ncc(F)c(-c4cc(F)c5nc(C)n(C(C)C)c5c4)n3)nc2)CC1` [abemaciclib, N-(5-((4-ethylpiperazin-1-yl)methyl)pyridin-2-yl)-5-fluoro-4-(4-fluoro-1-isopropyl-2-methyl-1H-benzo[d]imidazol-6-yl)pyrimidin-2-amine], the GI50 (T47D cells) was roughly 40 nM, the inhibition at 0.04 µM (T47D cells; [9]) was 32% and the “tumor growth inhibition (TGI)” value [2] was 50%. For the same molecule, the GI50 (MCF7 cells) was roughly 40 nM and the “mean decrease in MCF7 cell growth relative to control” value (MCF7 cells; [10]) was 49%.

In the case of `O=C1CC[C@H](N2Cc3cc(N4CCN(CC5CCN(c6ccc([C@@H]7c8ccc(O)cc8CC[C@@H]7c7ccccc7)cc6)CC5)CC4)ccc3C2=O)C(=O)N1` [Compound A, (S)-3-(5-(4-((1-(4-((1R,2S)-6-hydroxy-2-phenyl-1,2,3,4-tetrahydronaphthalen-1-yl)phenyl)piperidin-4-yl)methyl)piperazin-1-yl)-1-oxoisoindolin-2-yl)piperidine-2,6-dione], the “SAEs, SARs or deaths” value [3] is reported as “No SAEs, SARs or deaths were reported”, the GI50 (T47D cells) is reported as roughly 10 nM and the inhibition at 0.01 µM (T47D cells; [11]) is reported as 41%. For the same molecule, the inhibition at 0.01 µM (T47D cells; [9]) was 42%, the “tumor growth inhibition (TGI)” value (MCF7 xenograft) was 105% and the “TRAEs of Grade 2 or higher” value [4] was “no TRAEs of Grade 2 or higher were reported”. For the same molecule, the tolerability [4] was “well-tolerated”, the “Biopharmaceutics Classification System Class” value [5] was “Class IV” and the “permeability (BCS)” value [5] was “low permeability”. The “solubility (BCS)” value [5] was “low solubility”, the GI50 (MCF7 cells) was roughly 10 nM and the “interconversion to Compound B” value [6] was “can interconvert”.

With `C[C@]12CC[C@@H]3c4ccc(O)cc4C[C@@H](CCCCCCCCC[S+]([O-])CCCC(F)(F)C(F)(F)F)[C@H]3[C@@H]1CC[C@@H]2O` (stereo partly shown) [fulvestrant] the GI50 (T47D cells) was roughly 1 nM, the inhibition at 0.001 µM (T47D cells; [9]) was 16% and the “tumor growth inhibition (TGI)” value (MCF7 xenograft) was 46%. The “tumor growth inhibition (TGI)” value [2] was 42%, the “tumor growth inhibition (TGI)” value [7] was 31% and the GI50 (MCF7 cells) was roughly 1 nM. The “mean decrease in MCF7 cell growth relative to control” value (MCF7 cells; [10]) was 48%.

With `CN(C)C(=O)c1cc2cnc(Nc3ccc(N4CCNCC4)cn3)nc2n1C1CCCC1` [ribociclib, 7-cyclopentyl-N,N-dimethyl-2-[(5-piperazin-1-ylpyridin-2-yl)amino]pyrrolo[2,3-d]pyrimidine-6-carboxamide] the GI50 (T47D cells) was roughly 40 nM, the inhibition at 0.04 µM (T47D cells; [11]) was 32% and the “tumor growth inhibition (TGI)” value [7] was 58%. For the same molecule, the GI50 (MCF7 cells) was roughly 40 nM and the “mean decrease in MCF7 cell growth relative to control” value (MCF7 cells; ribociclib experiment, ribociclib 40 nM (approx. GI50)) was 44%.

With `O=C1CC[C@@H](N2Cc3cc(N4CCN(CC5CCN(c6ccc([C@@H]7c8ccc(O)cc8OC[C@@H]7c7ccccc7)cc6)CC5)CC4)ccc3C2=O)C(=O)N1` [Compound B] the “exposure of Compound B compared to Compound A” value [8] was less than 26%, the “AUCtau, dose dependence” value [1, 12] was “dose-dependent increases” and the “Cmax, dose dependence” value [1, 12] was “dose-dependent increases”. The “degradation of the ER” value (ER) was “does not degrade the ER”.
